Experimental data taken from US20240368163A1, “COMPOUNDS AND METHODS FOR MODULATING SPLICING” (REMIX THERAPEUTICS INC., priority 2021, published 2024).

Experiments:
Format in all cases: cell-based, human
Target C = test: HiBiT protein abundance assay, Target C; conditions: modified K562 cells
Method in brief: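 HiBiT knock-in K562-derived cells, 10000 cells/well, were treated 24 h at 37 °C with a 10-point 3-fold dilution series (top 10 μM final, DMSO ≤0.25%). Lytic HiBiT luminescence was normalized to unmodified K562 and DMSO controls; IC50 was interpolated at 50% from a four-parameter logistic fit.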

MYB [1] = test: HiBiT protein abundance assay, MYB; conditions: modified K562 cells
Method in brief: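 K562 cells with endogenous HiBiT-tagged target were treated 24 h at 37 °C with compound (10-point 3-fold dilution, top 10 μM final, DMSO ≤0.25%). Lytic LgBiT luminescence was normalized to unmodified K562 (baseline) and DMSO-treated tagged cells; IC50 interpolated at 50% from four-parameter logistic fit.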

MYB [2] = test: Splicing RT-qPCR assay, MYB mRNA canonical junction (CJ) and alternative junction (AJ); conditions: for AC50: increase in AJ mRNA
Method in brief: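 Cells: A673 (DMEM/10% FBS) or K562 (IMDM/10% FBS). Dose: 11-pt 3-fold, top 10 uM final, ≤0.25% DMSO, 24 h, 37 °C. Readout: RT-qPCR of CJ/AJ exon junctions, ΔΔCt vs housekeeper and DMSO, RQ to % response.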

[3] = Homo sapiens, K562, 24 h, Table 13A
[4] = Homo sapiens, 24 h, decrease in CJ mRNA, A673 or K562 cells, 24 hours treatment, RT-qPCR, read-out: MYB CJ IC50
[5] = Homo sapiens, 24 h, A673 or K562 cells, 24 hours treatment, RT-qPCR
[6] = Homo sapiens, RT-qPCR panel, canonical junction mRNA, compound concentration having 50% response in CJ decrease, read-out: MYB IC50 (decrease in CJ mRNA levels)
[7] = Homo sapiens, K562, 24 h, Table 13B
[8] = Homo sapiens, gene panel, CJ qPCR, protocol of Example 142, read-out: MYB IC50 (decrease in CJ mRNA levels)

Compound	IC50 (Target C; [3])	IC50 (MYB [1]; [3])	IC50 (MYB [2]; [4])	AC50 (MYB [2]; [5])	IC50 (MYB [2]; [6])	IC50 (Target C; [7])	IC50 (MYB [1]; [7])	IC50 (MYB [2]; [8])	other results
CN(c1ccc(-c2ccc(-c3cnn(C)c3)c3cn[nH]c23)nn1)C1CCNCC1 [Compound 242]	> 10000 nM	1000 to 10000 nM	> 10000 nM	> 10000 nM	> 10000 nM				
CN(c1ncc(-c2ccc(-n3cccn3)c3[nH]ncc23)nn1)[C@@H]1C[C@H]2CCC[C@@H](C1)N2 [Compound 551]	< 100 nM	< 100 nM			100 to 1000 nM				
CN(c1ccc(-c2ccc(-c3cn[nH]c3)c(C#N)n2)nn1)[C@@H]1C[C@H]2CC[C@@H](C1)N2 [Compound 930]						< 100 nM	< 100 nM	100 to 1000 nM	
c1n[nH]cc1-c1ccc(-c2ccc(N[C@@H]3C[C@H]4CCC[C@@H](C3)N4)nn2)c2[nH]ncc12 [Compound 294]	100 to 1000 nM	100 to 1000 nM	100 to 1000 nM	100 to 1000 nM	100 to 1000 nM				
COc1nc(-c2ccc(O[C@@H]3C[C@H]4CC[C@@H](C3)N4)nn2)ccc1-c1cnc(C)s1 [Compound 962]						100 to 1000 nM	100 to 1000 nM	100 to 1000 nM	
CN(c1ncc(-c2ccc(-n3ccnn3)c3[nH]ncc23)nn1)[C@@H]1C[C@H]2CCC[C@@H](C1)N2 [Compound 576]	100 to 1000 nM	100 to 1000 nM			1000 to 10000 nM				
Fc1cc(-c2ccc(N[C@@H]3C[C@H]4CC[C@@H](C3)N4)nn2)c2scnc2c1-c1cn[nH]c1 [Compound 339]	< 100 nM	< 100 nM	< 100 nM	< 100 nM	< 100 nM				
COc1nc(-c2ccc(OC3CC(C)(C)NC(C)(C)C3)nn2)ccc1-c1cn[nH]c1 [Compound 917]						< 100 nM	100 to 1000 nM	100 to 1000 nM	
CC(C)(C)C1CN(c2ncc(-c3ccc(-n4cccn4)c4[nH]ncc34)nn2)CCN1 (centres unmarked) [Compound 572]	100 to 1000 nM	100 to 1000 nM			100 to 1000 nM				
CN(c1ccc(-c2ccc(-c3cn[nH]c3)c(OC3CC3)n2)nn1)[C@@H]1C[C@H]2CC[C@@H](C1)N2 [Compound 939]						< 100 nM	< 100 nM	100 to 1000 nM	
COc1nc(-c2ccc(N(C)C3CC(C)(C)NC(C)(C)C3)nn2)ccc1-c1cn[nH]c1 [Compound 919]						< 100 nM	100 to 1000 nM	100 to 1000 nM	
COc1nc(-c2ccc(N(C)[C@@H]3C[C@H]4CC[C@@H](C3)N4)nn2)ccc1-c1cn[nH]c1 [Compound 906]						< 100 nM	< 100 nM	100 to 1000 nM	
[2H]C([2H])([2H])N(c1ccc(-c2ccc(-c3cn[nH]c3)c3ncsc23)nn1)[C@@H]1C[C@H]2CCC[C@@H](C1)N2 [Compound 227]	< 100 nM	< 100 nM	< 100 nM	< 100 nM	< 100 nM				
[2H]C([2H])([2H])N(c1ccc(-c2ccc(-c3cn[nH]c3)c3ncsc23)nn1)[C@@H]1C[C@H]2CC[C@@H](C1)N2 [Compound 210]	< 100 nM	< 100 nM	< 100 nM	< 100 nM	< 100 nM				
Cc1ncc(-c2ccc(-c3ccc(O[C@@H]4C[C@H]5CC[C@@H](C4)N5)nn3)c3scnc23)s1 [Compound 348, 7-{6-[(exo)-8-azabicyclo[3.2.1]octan-3-yloxy]pyridazin-3-yl}-4-(2-methyl-1,3-thiazol-5-yl)-1,3-benzothiazole]	100 to 1000 nM	< 100 nM	100 to 1000 nM	100 to 1000 nM	100 to 1000 nM				
COc1nc(-c2ccc(N(C)C3CC(C)(C)NC(C)(C)C3)nn2)ccc1-c1cnn(C)c1 [Compound 920]						100 to 1000 nM	100 to 1000 nM	100 to 1000 nM	

Compound	IC50 (Target C; [3])	IC50 (MYB [1]; [3])	IC50 (MYB [2]; [4])	AC50 (MYB [2]; [5])	IC50 (MYB [2]; [6])	IC50 (Target C; [7])	IC50 (MYB [1]; [7])	IC50 (MYB [2]; [8])	other results
CN(c1ccc(-c2ccc(-c3cn[nH]c3)c3cn[nH]c23)nn1)[C@@H]1C[C@H]2CC[C@@H](C1)N2 [Compound 104]	100 to 1000 nM	100 to 1000 nM	1000 to 10000 nM	1000 to 10000 nM	1000 to 10000 nM				
CN(c1ncc(-c2ccc(-n3cncn3)c3[nH]ncc23)nn1)[C@@H]1C[C@H]2CCC[C@@H](C1)N2 [Compound 574]	< 100 nM	100 to 1000 nM			100 to 1000 nM				
COc1nc(-c2ccc(OC3CC(C)(C)NC(C)(C)C3)nn2)ccc1-c1cnn(C)c1 [Compound 918]						100 to 1000 nM	100 to 1000 nM	100 to 1000 nM	
CC(C)(C)NC1CCN(c2ccc(-c3ccc(-c4cn[nH]c4)c4ncsc34)nn2)C1 (centres unmarked) [Compound 336]									IC50 (Target C; Table 13A, 24 hours): 100 to 1000 nM; IC50 (MYB [1]; Table 13A, 24 hours): 100 to 1000 nM; IC50 (MYB [2]; RT-qPCR panel, canonical junction mRNA, compound concentration having 50% response in CJ decrease, read-out: MYB IC50 (decrease in CJ mRNA levels)): 100 to 1000 nM; IC50 (MYB [2]; decrease in CJ mRNA, A673 or K562 cells, 24 hours treatment, RT-qPCR, read-out: MYB CJ IC50): 100 to 1000 nM
COc1nc(-c2ccc(OC3CC(C)(C)NC(C)(C)C3)nn2)cc(F)c1-c1cn[nH]c1 [Compound 965]						< 100 nM	100 to 1000 nM	100 to 1000 nM	
CC(C)(C)[C@H]1CN(c2ncc(-c3ccc(-n4cccn4)c4[nH]ncc34)nn2)CCN1 [Compound 581]	< 100 nM	100 to 1000 nM			100 to 1000 nM				
COc1nc(-c2ccc(N(C)[C@@H]3C[C@H]4CC[C@@H](C3)N4)nn2)cc(F)c1-c1cn[nH]c1 [Compound 931]						< 100 nM	< 100 nM	< 100 nM	
Fc1cc(-c2ccc(O[C@@H]3C[C@H]4CC[C@@H](C3)N4)nn2)c2[nH]ncc2c1-c1cn[nH]c1 [Compound 216]	100 to 1000 nM	< 100 nM	100 to 1000 nM	< 100 nM	100 to 1000 nM				
Fc1cc(-c2ccc(O[C@@H]3C[C@H]4CC[C@@H](C3)N4)nn2)c2sncc2c1-c1cn[nH]c1 [Compound 327]	< 100 nM	< 100 nM	< 100 nM	< 100 nM	< 100 nM				
CCN(c1ccc(C2=CC=C(c3cn[nH]c3)C3N=CSC23)nn1)[C@@H]1C[C@H]2CC[C@@H](C1)N2 (some centres unmarked) [Compound 203]	< 100 nM	< 100 nM	100 to 1000 nM	100 to 1000 nM	100 to 1000 nM				
CN(c1ccc(-c2cc(F)c(-c3cn[nH]c3)c3cn[nH]c23)nn1)[C@@H]1C[C@H]2CC(F)(F)[C@@H](C1)N2 (stereo in doubt) [Compound 378, 6,6-difluoro-N-{6-[5-fluoro-4-(1H-pyrazol-4-yl)-1H-indazol-7-yl]pyridazin-3-yl}-N-methyl-8-azabicyclo[3.2.1]octan-3-amine]	< 100 nM	100 to 1000 nM	100 to 1000 nM	< 100 nM	100 to 1000 nM				
c1nc2c(-c3cn[nH]c3)ccc(-c3ccc(OC4CCNCC4)nn3)c2s1 [Compound 183]	< 100 nM	100 to 1000 nM	100 to 1000 nM	100 to 1000 nM	100 to 1000 nM				
CN(c1ccc(-c2ccc(-c3cn[nH]c3)c(OC(F)F)n2)nn1)[C@@H]1C[C@H]2CC[C@@H](C1)N2 [Compound 955]						< 100 nM	< 100 nM	100 to 1000 nM	
CN(c1ccc(-c2ccc(-c3cn[nH]c3)c3ncsc23)nn1)[C@@H]1C[C@H]2CCC[C@@H](C1)N2 [Compound 226]	< 100 nM	< 100 nM	< 100 nM	< 100 nM	< 100 nM				
CN(c1ccc(-c2ccc(-n3cccn3)c3cn[nH]c23)nn1)[C@@H]1C[C@H]2CC[C@@H](C1)N2 [Compound 105]	< 100 nM	< 100 nM	< 100 nM	100 to 1000 nM	< 100 nM				
